A short description of data set [1]: Solution stability of an aqueous solution (uv spectrum). The class given is physicochemical. Particulars: aqueous solution (ca 2 mg ml^-1) stored at 5° for 2 months.
The test system of data set [2] is Escherichia coli 0111. Put plainly: Antibacterial activity (MIC). The class given is cell-based.
The test system of data set [3] is Escherichia coli ATCC 27166. The data set is described as follows: Antibacterial activity (MIC). It is filed as cell-based.
For data set [4], the system named is Bacillus subtilis ATCC 6633. Put plainly: Antibacterial activity (MIC). The class given is cell-based.
Data set [5] relates to Streptococcus pneumoniae CN33. The data set is described as follows: Antibacterial activity (MIC). The class given is cell-based.
Data set [6] relates to Staphylococcus aureus Oxford. The data set is described as follows: Antibacterial activity (MIC). It is filed as cell-based.
The next data set concerns Shigella sonnei MB11967. The data set is described as follows: Antibacterial activity (MIC). The class given is cell-based.
Data set [7] deals with Klebsiella aerogenes A. Put plainly: Antibacterial activity (MIC). The class given is cell-based.
Data set [8] has as its system Branhamella catarrhalis 1502. Put plainly: Antibacterial activity (MIC). It is filed as cell-based.
Data set [9] deals with Streptococcus pyogenes CN10. Put plainly: Antibacterial activity (MIC). The class given is cell-based.
Data set [10] deals with Escherichia coli NCTC 10418. The data set is described as follows: Antibacterial activity (MIC). It is filed as cell-based.
Data set [11] relates to Citrobacter freundii E8. The data set is described as follows: Antibacterial activity (MIC). The class given is cell-based.
For data set [12], the system named is Salmonella typhimurium CT10. The data set is described as follows: Antibacterial activity (MIC). The class given is cell-based.
Another data set deals with Escherichia coli ESS. Put plainly: Antibacterial activity (MIC). The class given is cell-based.
For a further data set, the system named is Escherichia coli JT39. The data set is described as follows: MIC in a standard test. The following applies: standard test; Escherichia coli JT39; read-out: MIC. It is filed as cell-based.
The subject of data set [13] is Salmonella typhimurium CT10. Put plainly: MIC in a standard test. The following applies: Salmonella enterica. The class given is cell-based.
In data set [14] the test system is Escherichia coli 0111. The data set is described as follows: MIC in a standard test. It is filed as cell-based.
A further data set deals with Serratia marcescens US20. The data set is described as follows: MIC in a standard test. The class given is cell-based.
The next data set deals with Streptococcus faecalis I. The data set is described as follows: MIC in a standard test. It is filed as cell-based. Particulars: Enterococcus faecalis.
Another data set relates to Proteus mirabilis C977. The data set is described as follows: MIC in a standard test. It is filed as cell-based.
In another data set the test system is Pseudomonas aeruginosa A. Put plainly: MIC in a standard test. It is filed as cell-based.
The test system of data set [15] is Staphylococcus aureus Russell. The data set is described as follows: MIC in a standard test. It is filed as cell-based.
The next data set has as its system Shigella sonnei MB 11967. The data set is described as follows: MIC in a standard test. The class given is cell-based. Particulars: MB11967.
The test system of data set [16] is Streptococcus pyogenes CN10. Put plainly: MIC in a standard test. The class given is cell-based.
The test system of data set [17] is Citrobacter freundii E8. The data set is described as follows: MIC in a standard test. The class given is cell-based.
In another data set the test system is Enterobacter cloacoae N1. The data set is described as follows: MIC in a standard test. It is filed as cell-based.
For another data set, the system named is Proteus rettgeri WM16. The data set is described as follows: MIC in a standard test. Particulars: Providencia rettgeri. The class given is cell-based.
In the next data set the test system is Bacillus subtilis A. The data set is described as follows: MIC in a standard test. It is filed as cell-based.
In the next data set the test system is Proteus vulgaris WO91. Put plainly: MIC in a standard test. The class given is cell-based.
Data set [18] concerns Staphylococcus aureus Oxford. Put plainly: MIC in a standard test. It is filed as cell-based.
In data set [19] the test system is Streptococcus pneumoniae CN33. The data set is described as follows: MIC in a standard test. It is filed as cell-based.
For another data set, the system named is Proteus morganii I580. The data set is described as follows: MIC in a standard test. It is filed as cell-based. The following applies: Morganella morganii.
The subject of data set [20] is Klebsiella aerogenes A. The data set is described as follows: MIC in a standard test. It is filed as cell-based.
The test system of data set [21] is Staphylococcus aureus 1517. Put plainly: MIC in a standard test. The class given is cell-based.
Setting [22] is: Escherichia coli, 0111, Escherichia coli 0111, read-out: MIC.
The mark [23] stands for this setting: Escherichia coli, ATCC27166, Escherichia coli ATCC 27166, read-out: MIC.
The mark [24] stands for this setting: Bacillus subtilis, ATCC6633, Bacillus subtilis ATCC 6633, read-out: MIC.
Setting [25] is: Shigella sonnei, MB11967, Shigella sonnei MB11967, read-out: MIC.
The mark [26] stands for this setting: Klebsiella aerogenes, read-out: MIC.
The mark [27] stands for this setting: Escherichia coli, NCTC10418, Escherichia coli NCTC 10418, read-out: MIC.
Setting [28] is: Citrobacter freundii, E8, Citrobacter freundii E8, read-out: MIC.
The mark [29] stands for this setting: Salmonella enterica, TYPHIMURIUM, read-out: MIC.

Broadly, the MIC is the least concentration at which growth counts as inhibited.

≈ marks a conversion by molar mass, not a printed value. Where two headings read alike, the source gives them in different places.

As to `CCSC1=C(C(=O)[O-])N2C(=O)C(CC)C2C1.[Na+]` (centres unmarked), in data set [1], the solution stability entry is listed as “without deterioration”.

`CCSC1=C(C(=O)OCc2ccc([N+](=O)[O-])cc2)N2C(=O)CC2C1` (racemic) [(±), p-Nitrobenzyl 3-ethylthio-7-oxo-1-azabicyclo [3,2,0]hept-2-ene-2-carboxylate]: the minimum inhibitory concentration (MIC) in the data set with Escherichia coli 0111 [2] (setting [22]) is more than 50 µg/mL; in [3] (setting [23]) it was 12.5 µg/mL (≈ 35.9 µM); in [4] (setting [24]) it was 25 µg/mL (≈ 71.8 µM); in data set [5] (Streptococcus pneumoniae, CN33, Streptococcus pneumoniae CN33, read-out: MIC), 1.2 µg/mL (≈ 3.44 µM); in [6] (read-out: MIC), more than 50 µg/mL; with Shigella sonnei MB11967 (setting [25]), more than 50 µg/mL. Also, the minimum inhibitory concentration (MIC) worked out at 25 µg/mL (≈ 71.8 µM) with Klebsiella aerogenes A [7] (setting [26]); 1.2 µg/mL (≈ 3.44 µM) in data set [8] (Moraxella catarrhalis, 1502, Branhamella catarrhalis 1502, read-out: MIC); 1.2 µg/mL (≈ 3.44 µM) in [9] (Streptococcus pyogenes, CN10, Streptococcus pyogenes CN10, read-out: MIC); 50 µg/mL (≈ 144 µM) in [10] (setting [27]); 50 µg/mL (≈ 144 µM) in the data set with Citrobacter freundii E8 [11] (setting [28]); 50 µg/mL (≈ 144 µM) in data set [12] (setting [29]). Moreover, the MIC in the data set on Escherichia coli ESS (Escherichia coli, read-out: MIC) worked out at 12.5 µg/mL (≈ 35.9 µM).

Regarding `CCSC1=C(C(=O)OCc2ccc([N+](=O)[O-])cc2)N2C(=O)CC2C1` (single isomer, unassigned; (+)) [(+), (+) p-Nitrobenzyl 3-ethylthio-7-oxo-1-azabicyclo[3.2.0] hept-2-ene-2-carboxylate], the minimum inhibitory concentration (MIC) against Escherichia coli 0111 [2] (Escherichia coli 0111) is 50 µg/mL (≈ 144 µM); in [3] (Escherichia coli ATCC 27166), 12.5 µg/mL (≈ 35.9 µM); in [4] (Bacillus subtilis ATCC 6633), 25 µg/mL (≈ 71.8 µM); in [5] (Streptococcus pneumoniae CN33), 0.5 µg/mL (≈ 1.44 µM); in data set [6], more than 50 µg/mL; in the data set on Shigella sonnei MB11967 (Shigella sonnei MB11967) it was 50 µg/mL (≈ 144 µM). For the same molecule, the MIC in the data set on Klebsiella aerogenes A [7] came out at 12.5 µg/mL (≈ 35.9 µM); in data set [8] (Branhamella catarrhalis 1502) it was 0.5 µg/mL (≈ 1.44 µM); in data set [9] (Streptococcus pyogenes CN10), 1.2 µg/mL (≈ 3.44 µM); in [10] (Escherichia coli NCTC 10418), 25 µg/mL (≈ 71.8 µM); in the data set with Citrobacter freundii E8 [11] (Citrobacter freundii E8) it was 25 µg/mL (≈ 71.8 µM); in data set [12], 50 µg/mL (≈ 144 µM). The minimum inhibitory concentration (MIC) with Escherichia coli ESS amounted to 5.0 µg/mL (≈ 14.4 µM).

For the molecule `CCSC1=C(C(=O)OCc2ccc([N+](=O)[O-])cc2)N2C(=O)CC2C1` (single isomer, unassigned; (-)) [(-), (-) p-Nitrobenzyl 3-ethylthio-7-oxo-1-azabicyclo[3.2.0] hept-2-ene-2-carboxylate], the minimum inhibitory concentration (MIC) is more than 50 µg/mL with Escherichia coli 0111 [2] (setting [22]); 25 µg/mL (≈ 71.8 µM) in data set [3] (setting [23]); 50 µg/mL (≈ 144 µM) in [4] (setting [24]); 2.5 µg/mL (≈ 7.18 µM) in data set [5] (Streptococcus pneumoniae CN33); more than 50 µg/mL in [6] (read-out: MIC); more than 50 µg/mL with Shigella sonnei MB11967 (setting [25]). In addition, the minimum inhibitory concentration (MIC) in the data set on Klebsiella aerogenes A [7] (setting [26]) was 25 µg/mL (≈ 71.8 µM); in [8] (Branhamella catarrhalis 1502), 2.5 µg/mL (≈ 7.18 µM); in [9] (Streptococcus pyogenes CN10), 2.5 µg/mL (≈ 7.18 µM); in data set [10] (setting [27]) it was more than 50 µg/mL; with Citrobacter freundii E8 [11] (setting [28]), more than 50 µg/mL; in data set [12] (setting [29]), more than 50 µg/mL. Also, the MIC against Escherichia coli ESS was 25 µg/mL (≈ 71.8 µM).

Regarding `O=C(O)C1=C(SCc2ccccc2)C[C@@H]2CC(=O)N12` [Example 47, Sodium 3-benzylthio-7-oxo-1-azabicyclo[3.2.0]hept-2-ene-2-carboxvlate], the minimal inhibitory concentration (MIC) in the data set with Escherichia coli JT39 was 50 µg/mL; in data set [13] it was 6.2 µg/mL; in the data set on Escherichia coli 0111 [14] it was 6.2 µg/mL; in the data set on Serratia marcescens US20, 50 µg/mL; against Streptococcus faecalis I, more than 50 µg/mL; with Proteus mirabilis C977, 50 µg/mL. In addition, the MIC against Pseudomonas aeruginosa A was more than 50 µg/mL; in data set [15] it was 6.2 µg/mL; with Shigella sonnei MB 11967 it was 6.2 µg/mL; in [16], 1.6 µg/mL; with Citrobacter freundii E8 [17] it was 25 µg/mL; with Enterobacter cloacoae N1, 12.5 µg/mL. The MIC in the data set on Proteus rettgeri WM16 is more than 50 µg/mL; against Bacillus subtilis A, 1.6 µg/mL; against Proteus vulgaris WO91 it was more than 50 µg/mL; in [18], 6.2 µg/mL; in data set [19], not above 0.2 µg/mL; in the data set on Proteus morganii I580 it was 50 µg/mL. Further, the MIC with Klebsiella aerogenes A [20] is 6.2 µg/mL; in data set [21], more than 50 µg/mL.

With `CCSC1=C(C(=O)OC2OC(=O)c3ccccc32)N2C(=O)[C@@H](CC)[C@H]2C1` (stereo partly drawn) [Example 75, Phthalidyl 6β-ethyl - 3-ethylthio - 7 - oxo - 1 - azabicyclo [3.2.0] hept - 2 - ene - 2-carboxylate], the MIC in the data set on Escherichia coli JT39 was 50 µg/mL (≈ 134 µM); in data set [13], 12.5 µg/mL (≈ 33.5 µM); in the data set with Escherichia coli 0111 [14] it was 25 µg/mL (≈ 66.9 µM); in the data set on Serratia marcescens US20 it was 50 µg/mL (≈ 134 µM); in the data set with Streptococcus faecalis I, more than 50 µg/mL; against Proteus mirabilis C977 it was 25 µg/mL (≈ 66.9 µM). For the same molecule, the MIC in the data set on Pseudomonas aeruginosa A is more than 50 µg/mL; in data set [15], 12.5 µg/mL (≈ 33.5 µM); with Shigella sonnei MB 11967 it was 12.5 µg/mL (≈ 33.5 µM); in data set [16], 5 µg/mL (≈ 13.4 µM); in the data set with Citrobacter freundii E8 [17] it was 25 µg/mL (≈ 66.9 µM); in the data set on Enterobacter cloacoae N1, 12.5 µg/mL (≈ 33.5 µM). Besides, the MIC against Proteus rettgeri WM16 came to 25 µg/mL (≈ 66.9 µM); against Bacillus subtilis A, 5 µg/mL (≈ 13.4 µM); in the data set with Proteus vulgaris WO91 it was 50 µg/mL (≈ 134 µM); in data set [18] it was 5 µg/mL (≈ 13.4 µM); in [19], 1.2 µg/mL (≈ 3.21 µM); in the data set with Proteus morganii I580, 25 µg/mL (≈ 66.9 µM). Moreover, the results for the MIC (with Klebsiella aerogenes A [20]; in [21]) were 25 µg/mL (≈ 66.9 µM) and more than 50 µg/mL, respectively.

Values taken from EP0008888A1, “Beta-lactam antibacterial compounds, their preparation and pharmaceutical compositions containing them” (BEECHAM GROUP PLC, priority 1978, dated 1980).
